Measured values reported in publication PMC4832243, “Discovery of Potent VEGFR-2 Inhibitors based on Furopyrimidine and Thienopyrimidne Scaffolds as Cancer Targeting Agents” (Scientific Reports, 2016).

What was measured:
[1] = system: HUVEC umbilical vein endothelial cells; experiment: In vitro HUVEC anti-proliferative assay (alamarBlue); type: cell-based; conditions: Homo sapiens, HUVEC proliferation at 10 μM, 72 hours; for activity at 10 µM: read-out: % Cell growth; for inhibition at 10 µM: read-out: % Cell inhibition
[2] = molecular target: T1, VEGFR-2 (KDR) (Homo sapiens, UniProt P35968); experiment: In vitro VEGFR-2 tyrosine kinase activity (Kinase-Glo Plus luminescence, BPS Bioscience); type: biochemical; conditions: for IC50: 5 concentrations 1 nM - 10 μM; for inhibition at 10 µM: single dose concentration of 10 μM
T1 construct: purchased BPS Bioscience 40301
T1 sequence (P35968 20-1356): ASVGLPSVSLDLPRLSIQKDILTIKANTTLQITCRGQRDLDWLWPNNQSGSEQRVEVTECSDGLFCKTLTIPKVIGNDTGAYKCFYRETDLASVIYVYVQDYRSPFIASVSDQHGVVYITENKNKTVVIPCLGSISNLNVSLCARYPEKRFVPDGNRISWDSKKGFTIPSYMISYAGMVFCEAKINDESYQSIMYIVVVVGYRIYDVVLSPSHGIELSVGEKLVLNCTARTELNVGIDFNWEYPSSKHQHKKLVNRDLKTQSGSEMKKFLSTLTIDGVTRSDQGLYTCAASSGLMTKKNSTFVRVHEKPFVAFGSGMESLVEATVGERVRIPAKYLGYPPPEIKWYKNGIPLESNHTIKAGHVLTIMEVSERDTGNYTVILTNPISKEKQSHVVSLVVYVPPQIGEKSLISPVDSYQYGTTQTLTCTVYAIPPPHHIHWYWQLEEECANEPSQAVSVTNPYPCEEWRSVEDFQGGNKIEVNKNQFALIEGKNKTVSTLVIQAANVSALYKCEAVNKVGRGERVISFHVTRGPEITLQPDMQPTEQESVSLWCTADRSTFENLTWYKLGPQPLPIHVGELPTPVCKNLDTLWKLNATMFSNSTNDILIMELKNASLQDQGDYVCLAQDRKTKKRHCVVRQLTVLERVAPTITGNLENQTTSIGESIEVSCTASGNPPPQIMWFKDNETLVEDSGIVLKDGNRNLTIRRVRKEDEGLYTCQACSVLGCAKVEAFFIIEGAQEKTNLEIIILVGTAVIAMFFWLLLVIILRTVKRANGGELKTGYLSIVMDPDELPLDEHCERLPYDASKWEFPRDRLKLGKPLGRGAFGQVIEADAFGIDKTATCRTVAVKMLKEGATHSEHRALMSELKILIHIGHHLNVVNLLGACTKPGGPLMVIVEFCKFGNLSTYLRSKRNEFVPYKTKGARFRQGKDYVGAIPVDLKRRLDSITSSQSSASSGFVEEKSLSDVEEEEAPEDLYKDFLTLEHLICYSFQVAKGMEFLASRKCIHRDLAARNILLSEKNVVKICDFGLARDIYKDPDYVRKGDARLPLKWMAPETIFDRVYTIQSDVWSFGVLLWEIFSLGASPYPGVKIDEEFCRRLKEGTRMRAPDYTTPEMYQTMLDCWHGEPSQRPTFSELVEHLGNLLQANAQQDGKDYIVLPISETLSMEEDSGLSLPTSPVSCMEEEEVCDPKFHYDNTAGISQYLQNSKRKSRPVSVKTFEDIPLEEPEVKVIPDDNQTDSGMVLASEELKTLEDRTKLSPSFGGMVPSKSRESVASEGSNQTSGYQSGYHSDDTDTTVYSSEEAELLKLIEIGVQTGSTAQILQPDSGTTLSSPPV

[3] = molecular target: c-Src (Homo sapiens, UniProt P12931); experiment: In vitro multiple-kinase inhibition assay, c-Src; type: biochemical
Sequence of c-Src (P12931 whole entry, species assumed): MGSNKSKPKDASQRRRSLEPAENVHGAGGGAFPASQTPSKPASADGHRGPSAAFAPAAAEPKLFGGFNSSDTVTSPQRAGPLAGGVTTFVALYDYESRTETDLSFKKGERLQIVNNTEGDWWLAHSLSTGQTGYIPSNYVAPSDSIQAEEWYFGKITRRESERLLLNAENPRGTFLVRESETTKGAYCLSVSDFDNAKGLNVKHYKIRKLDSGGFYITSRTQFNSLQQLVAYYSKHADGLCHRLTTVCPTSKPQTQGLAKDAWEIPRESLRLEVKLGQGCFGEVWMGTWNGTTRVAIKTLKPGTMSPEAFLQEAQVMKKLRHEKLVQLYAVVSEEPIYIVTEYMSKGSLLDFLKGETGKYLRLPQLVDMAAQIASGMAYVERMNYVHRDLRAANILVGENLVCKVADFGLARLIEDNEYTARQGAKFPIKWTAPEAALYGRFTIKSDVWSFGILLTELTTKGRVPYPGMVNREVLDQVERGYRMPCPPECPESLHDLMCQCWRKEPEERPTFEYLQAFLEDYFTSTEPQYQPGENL
Protocol: (§1) In vitro multiple-kinase inhibition assay. […] Kinase enzymatic activity of the tested compounds was evaluated against a reference kinase inhibitor at 10 μM (Table 2).
(§2) The multiple kinases activity at single dose concentration of 10 μM was performed, c-Kit, c-Raf, c-Src, RET served as the enzyme source. […] Kinase-Glo Plus Luminescence kinase assay kit (Promega#V3772), ADP-Glo Luminescence assay kit was used for c-kit assay (Supplementary). […]
(§3) mM MgCl2, 0.1 mg/ml BSA, 1 mM DTT, 10 µM ATP, Kinase substrate and VEGFR. After the enzymatic reaction, 50 µl of Kinase-Glo Plus Luminescence kinase assay solution (Promega) was added to each reaction and incubate the plate for 5 minutes at room temperature.
(§4) Luminescence signal was measured using a BioTek Synergy 2 microplate reader. VEGFR activity assays were performed in duplicate at each concentration.
(§5) The luminescence data were analyzed using the computer software, Graphpad Prism. The difference between luminescence intensities in the absence of VEGFR (Lut) and in the presence of VEGFR (Luc) was defined as 100 % activity (Lut – Luc). Using luminescence signal (Lu) in the presence of the compound, % activity was calculated as:
(§6) % activity = {(Lut - Lu)/(Lut - Luc)}×100%, where Lu= the luminescence intensity in the […]
(§7) IC50 determination for inhibitor against VEGFR was calculated. The values of % activity versus a series of compound concentrations (1 nM - 10 nM - 100 nM - 1 µM - 10 µM) were then […]
(§8) or Hill coefficient. The IC50 value was determined by the concentration causing a half-maximal […]
(§9) In vitro multiple-kinase inhibition assay
(§10) Luminescence signal was measured using a BioTek Synergy 2 microplate reader […]
(§11) The luminescence data were analyzed using the same computer software and the same protocol

[4] = system: Ehrlich ascites carcinoma (EAC) solid tumor; experiment: In vivo anticancer activity, EAC solid tumor murine model; parameters: species or system Swiss albino mice; conditions: 10 mg/kg/day po, once daily for 8 consecutive days
Protocol: Animals. Female Swiss albino mice weighing 15–20 g were used in the present study. They were obtained from the animal breeding laboratory, National Cancer Institute (NCI), Cairo University, Egypt. Animals were kept in our animal facility, faculty of pharmacy, Ain Shams university at 25 ± 2 °C and a relative humidity of 40–45% with alternative day and night cycles of 12 h each. Animals had free access to pellet food and water ad libitum. Standard diet pellets (El-Nasr, Abu Zaabal, Egypt) contained not less than 20% protein, 5% fiber, 3.5% fat, 6.5% ash and a vitamin mixture. Animal care and experiments were conducted in accordance with the protocols approved by the Ethics Research Committee, Faculty of Pharmacy, Ain Shams University, following the Institutional Animal Care and Use Committee guidelines.
Tumor cells preparation and transplantation. Ehrlich ascites carcinoma (EAC) cells were obtained from NCI, Cairo University, Egypt. EAC cells were maintained in the ascitic form in Swiss albino mice by intraperitoneal transplantation of each mouse every 10 days. Ascitic fluid was drawn from tumor-bearing mice at the log phase (7–8th day of tumor bearing) of the tumor cells. The freshly drawn fluid was diluted with ice-cold sterile isotonic saline. 200 μl tumor cell suspension containing 2 × 10^6 tumor cells were then subcutaneously injected in each mouse.
Experimental design. Swiss albino mice were divided into six groups (n = 6 per group).
Evaluation of effectiveness. Tumor growth curve was drawn according to the change in tumor volume from first day of treatment (day 0) till day 7. Longest and shortest diameters of the solid tumor were monitored using a digital vernier caliper. Tumor volume (TV) of each animal was calculated using the following formula: […]
Tumor growth inhibition (TGI) was calculated as follows.
RTV = (Tumor volume at the day of measurement)/Tumor volume at the initial day.
Histopathological Examination
thickness by slidge microtome.
graded ethanol solutions.

[5] = molecular target: c-Kit (Homo sapiens, UniProt P10721); experiment: In vitro multiple-kinase inhibition assay, c-Kit (ADP-Glo); type: biochemical
Sequence of c-Kit (P10721 26-976): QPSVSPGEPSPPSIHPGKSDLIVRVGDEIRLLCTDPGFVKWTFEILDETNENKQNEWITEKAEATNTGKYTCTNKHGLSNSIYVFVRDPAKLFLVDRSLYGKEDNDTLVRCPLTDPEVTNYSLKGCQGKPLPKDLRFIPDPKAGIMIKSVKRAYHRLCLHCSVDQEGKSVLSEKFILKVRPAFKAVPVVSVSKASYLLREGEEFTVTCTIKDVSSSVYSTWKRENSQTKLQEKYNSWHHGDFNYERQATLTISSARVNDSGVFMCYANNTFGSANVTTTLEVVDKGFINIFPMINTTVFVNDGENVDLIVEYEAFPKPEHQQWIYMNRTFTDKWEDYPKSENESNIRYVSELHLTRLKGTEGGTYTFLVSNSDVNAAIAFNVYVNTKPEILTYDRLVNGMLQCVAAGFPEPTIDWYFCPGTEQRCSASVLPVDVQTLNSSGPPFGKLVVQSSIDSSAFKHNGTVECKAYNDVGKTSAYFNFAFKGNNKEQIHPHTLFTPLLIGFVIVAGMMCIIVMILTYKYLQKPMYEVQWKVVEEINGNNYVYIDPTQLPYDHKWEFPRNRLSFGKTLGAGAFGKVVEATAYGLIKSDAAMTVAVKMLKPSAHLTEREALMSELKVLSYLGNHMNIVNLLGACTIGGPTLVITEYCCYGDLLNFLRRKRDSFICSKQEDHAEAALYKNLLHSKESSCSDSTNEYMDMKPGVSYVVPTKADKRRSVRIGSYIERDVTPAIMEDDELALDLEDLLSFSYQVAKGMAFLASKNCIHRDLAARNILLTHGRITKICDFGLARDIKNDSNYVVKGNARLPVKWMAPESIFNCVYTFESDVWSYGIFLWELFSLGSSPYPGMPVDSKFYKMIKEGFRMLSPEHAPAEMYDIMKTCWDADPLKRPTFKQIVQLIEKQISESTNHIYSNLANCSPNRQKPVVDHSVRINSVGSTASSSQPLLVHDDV
Protocol: as §1, §2, §3, §4, §5, §6, §7, §8, §9
The assay was performed using the same conditions for VEGFR-2 activity assay (section 5.2.1.1). The assays for c-Kit was an exception, it was performed using ADP-Glo Kinase assay reagents (Promega). It measures kinase activity by quantitating the ADP amount produced from the enzymatic reaction. The luminescent signal from the assay is correlated with the amount of ADP present and is directly correlated with the amount of kinase activity. Other conditions are same to the previous section except the final reaction volume was reduced to 25 µl. After the 40 min kinase reaction at 30 °C, 25 µl of ADP-Glo reagent was added and incubated for 45 min at room temperature followed by another 50 min incubation with 50 µl of Kinase detection mixture.
as §10, §11

[6] = molecular target: RET (Homo sapiens, UniProt P07949); experiment: In vitro multiple-kinase inhibition assay, RET; type: biochemical
Sequence of RET (P07949 29-1114, species assumed): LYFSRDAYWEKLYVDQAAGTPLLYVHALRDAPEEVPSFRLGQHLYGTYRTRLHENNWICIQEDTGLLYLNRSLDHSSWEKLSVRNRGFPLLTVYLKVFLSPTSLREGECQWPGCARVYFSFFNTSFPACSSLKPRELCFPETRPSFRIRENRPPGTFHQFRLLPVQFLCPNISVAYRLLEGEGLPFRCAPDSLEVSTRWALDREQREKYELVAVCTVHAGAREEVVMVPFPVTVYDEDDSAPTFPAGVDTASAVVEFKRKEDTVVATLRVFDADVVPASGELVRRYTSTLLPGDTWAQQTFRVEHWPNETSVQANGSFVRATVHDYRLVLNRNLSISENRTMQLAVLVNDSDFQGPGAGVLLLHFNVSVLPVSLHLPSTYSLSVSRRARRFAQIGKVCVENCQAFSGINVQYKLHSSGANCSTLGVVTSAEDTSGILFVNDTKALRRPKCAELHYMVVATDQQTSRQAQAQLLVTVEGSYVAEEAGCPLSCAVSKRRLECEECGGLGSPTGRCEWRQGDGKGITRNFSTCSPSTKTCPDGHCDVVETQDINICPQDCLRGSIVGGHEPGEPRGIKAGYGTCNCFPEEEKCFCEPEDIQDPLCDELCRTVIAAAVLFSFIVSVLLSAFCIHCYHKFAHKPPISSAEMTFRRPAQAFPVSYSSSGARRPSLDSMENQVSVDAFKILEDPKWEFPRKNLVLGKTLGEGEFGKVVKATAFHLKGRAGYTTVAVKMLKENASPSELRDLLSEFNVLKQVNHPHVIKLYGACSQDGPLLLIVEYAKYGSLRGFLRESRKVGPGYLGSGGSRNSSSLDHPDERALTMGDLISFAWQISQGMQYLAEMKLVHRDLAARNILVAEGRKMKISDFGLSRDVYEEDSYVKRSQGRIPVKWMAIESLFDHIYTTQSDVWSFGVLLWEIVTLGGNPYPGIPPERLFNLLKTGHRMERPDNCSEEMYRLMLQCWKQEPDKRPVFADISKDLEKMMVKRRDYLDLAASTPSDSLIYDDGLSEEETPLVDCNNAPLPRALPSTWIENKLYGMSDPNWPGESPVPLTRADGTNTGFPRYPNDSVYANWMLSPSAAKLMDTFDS
Protocol: as §1, §2, §3, §4, §5, §6, §7, §8, §9, §10, §11

[7] = molecular target: c-Raf (Homo sapiens, UniProt P04049); experiment: In vitro multiple-kinase inhibition assay, c-Raf; type: biochemical
Sequence of c-Raf (P04049 whole entry, species assumed): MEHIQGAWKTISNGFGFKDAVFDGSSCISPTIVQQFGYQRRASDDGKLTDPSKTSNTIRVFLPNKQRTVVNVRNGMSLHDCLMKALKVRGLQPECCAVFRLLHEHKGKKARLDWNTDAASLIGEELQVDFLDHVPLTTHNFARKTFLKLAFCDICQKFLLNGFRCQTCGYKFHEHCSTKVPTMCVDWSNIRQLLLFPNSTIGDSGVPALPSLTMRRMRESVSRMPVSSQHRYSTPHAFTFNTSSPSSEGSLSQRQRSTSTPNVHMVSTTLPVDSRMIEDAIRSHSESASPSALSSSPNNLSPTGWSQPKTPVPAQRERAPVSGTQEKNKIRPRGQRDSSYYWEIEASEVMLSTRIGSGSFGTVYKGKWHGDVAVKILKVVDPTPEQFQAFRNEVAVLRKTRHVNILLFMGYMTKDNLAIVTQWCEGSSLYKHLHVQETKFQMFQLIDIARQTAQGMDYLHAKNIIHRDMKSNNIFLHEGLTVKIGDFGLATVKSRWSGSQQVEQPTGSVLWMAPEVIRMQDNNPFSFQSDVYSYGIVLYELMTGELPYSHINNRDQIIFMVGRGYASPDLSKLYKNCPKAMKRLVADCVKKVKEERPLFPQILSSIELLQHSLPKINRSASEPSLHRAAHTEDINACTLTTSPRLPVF
Protocol: as §1, §2, §3, §4, §5, §6, §7, §8, §9, §10, §11

Row | SMILES | melting point | inhibition at 10 µM [2] | also measured
1 | CN[C@@H]1C[C@H]2O[C@@](C)([C@@H]1OC)n1c3ccccc3c3c4c(c5c6ccccc6n2c5c31)C(=O)NC4 [Staurosporine, reference compound] | – | – | inhibition at 1 µM ([3]; read-out: Inhibition %, c-Src, reference inhibitor): 98%
2 | CNC(=O)c1cc(Oc2ccc(NC(=O)Nc3ccc(Cl)c(C(F)(F)F)c3)cc2)ccn1.Cc1ccc(S(=O)(=O)O)cc1 [Sorafenib p-toluenesulfonate, sorafenib p-toluenesulfonate, reference compound] | – | – | TGI (%) [4]: 80.8%
3 | CCOC(=O)c1c(C)oc2ncnc(Nc3ccc(C(=O)Nc4ccc(C)cc4)cc3)c12 [Compound 14c] | 235 to 238 °C | 14% | –
4 | CCOC(=O)c1c(C)oc2ncnc(Nc3ccc(NC(=O)c4cccc(Cl)c4)cc3)c12 [Compound 13a] | 232 to 236 °C | 8% | –
5 | CCOC(=O)c1c(C)oc2ncnc(Nc3ccc(NC(=O)c4ccc(Cl)cc4)cc3)c12 [Compound 13b] | > 250 °C | 15% | –
6 | O=C(Nc1ccc(Cl)cc1)Nc1ccc(Nc2ncnc3sc4c(c23)CCCC4)cc1 [Compound 20e] | > 300 °C | 32% | –
7 | CC(=O)c1cccc(NC(=O)Nc2ccc(Nc3ncnc4sc5c(c34)CCCC5)cc2)c1 [Compound 20g] | 265 to 269 °C | > 70% | activity at 10 µM [1]: 29.2%; inhibition at 10 µM [1]: 70.8%; IC50 [2]: 1.5 µM
8 | CCOC(=O)c1c(C)oc2ncnc(Nc3ccc(C(=O)Nc4ccc(Cl)c(C(F)(F)F)c4)cc3)c12 [Compound 14d] | 238 to 240 °C | 14% | –
9 | CCOC(=O)c1c(C)oc2ncnc(Nc3ccc(NC(=O)Nc4ccc(Cl)cc4)cc3)c12 [Compound 15e] | 262 to 265 °C | 14% | –
10 | CCOC(=O)c1c(C)oc2ncnc(Oc3ccc(NC(=O)Nc4cccc(OC)c4)cc3)c12 [Compound 16c] | – | – | activity at 10 µM [1]: 32.1%; inhibition at 10 µM [1]: 67.9%; IC50 [2]: 0.551 µM
11 | CCOC(=O)c1c(C)oc2ncnc(Nc3ccc(NC(=O)Nc4cccc(Br)c4)cc3)c12 [Compound 15h] | 224 to 228 °C | 45% | –
12 | Cc1ccc(NC(=O)Nc2ccc(Nc3ncnc4sc5c(c34)CCCC5)cc2)cc1Cl [Compound 20f] | > 300 °C | > 70% | –
13 | Cc1cccc(NC(=O)Nc2ccc(Nc3ncnc4sc5c(c34)CCCC5)cc2)c1 [Compound 20b] | > 250 °C | 47% | –
14 | CCOC(=O)c1c(C)oc2ncnc(Nc3ccc(NC(=O)Nc4cccc(C(C)=O)c4)cc3)c12 [Compound 15g] | 240 to 244 °C | > 70% | –
15 | CCOC(=O)c1c(C)oc2ncnc(Nc3ccc(NC(=O)Nc4ccc(C)c(Cl)c4)cc3)c12 [Compound 15f] | 254 to 256 °C | – | activity at 10 µM [1]: 97.7%; inhibition at 10 µM [1]: 2.32%; IC50 [2]: 2.1 µM

Continued, in another order:

Row | melting point | inhibition at 10 µM [2] | SMILES | also measured
16 | 116 to 119 °C | > 70% | CCOC(=O)c1c(C)oc2ncnc(Oc3ccc(NC(=O)Nc4cccc(C)c4)cc3)c12 [Compound 16b] | activity at 10 µM [1]: 73.3%; inhibition at 10 µM [1]: 26.6%; IC50 [2]: 1 µM
17 | 215 to 219 °C | 40% | CCOC(=O)c1c(C)oc2ncnc(Oc3ccc(NC(=O)Nc4ccc(Cl)cc4)cc3)c12 [Compound 16d] | –
18 | – | > 70% | CCOC(=O)c1c(C)oc2ncnc(Oc3ccc(NC(=O)Nc4ccc(C)c(Cl)c4)cc3)c12 [Compound 16e] | inhibition at 10 µM [3]: 1%; inhibition at 10 µM [5]: 72%; activity at 10 µM [1]: 88.9%; inhibition at 10 µM [1]: 11.1%; inhibition at 10 µM [6]: 84%; inhibition at 10 µM [7]: 53%; IC50 [2]: 0.122 µM
19 | 183 to 185 °C | 27% | CCOC(=O)c1c(C)oc2ncnc(Oc3ccc(NC(=O)Nc4ccccc4)cc3)c12 [Compound 16a] | –
20 | – | 19% | CCOC(=O)c1c(C)oc2ncnc(Nc3ccc(NC(=O)Nc4ccccc4)cc3)c12 [Compound 15a] | –
21 | 220 to 222 °C | 62% | CCOC(=O)c1c(C)oc2ncnc(Nc3ccc(NC(=O)Nc4cccc(OC)c4)cc3)c12 [Compound 15c] | –
22 | > 250 °C | – | CCOC(=O)c1c(C)oc2ncnc(Nc3ccc(NC(=O)Nc4cccc(C)c4)cc3)c12 [Compound 15b] | activity at 10 µM [1]: 0.5%; inhibition at 10 µM [1]: 99.5%; IC50 [2]: 0.946 µM
